Measured values reported in patent US6239130A, “Phosphodiesterase 4-inhibiting diazepinoindolones” (Warner-Lambert Company, priority 1997, dated 2001).

Tested on: PDE4 enzyme of human origin
Experiment: PDE4-inhibiting activity on an enzyme preparation obtained from the U937 cell line
Assay type: biochemical
Description: In the case of the PDE4 enzymes, this value is compared with that of rolipram, a specific PDE4 inhibitor. […] Measurement of the enzyme activity of the different types of PDE, and especially of the PDE4 enzymes, is then carried out according to a method adapted from W. J. Thompson, ibidem.

Compound	IC50
Cc1cc2c3c(c1)C(c1ccccc1)=NC(n1c(C)nc4cc(C(=O)NCC(=O)O)ccc4c1=O)C(=O)N3CC2 (centres unmarked) [Example 35D, N-(2-Methyl-3-(9-methyl-4-oxo-1-phenyl-3,4,6,7-tetrahydro[1,4]diazepino[6,7,1-hi]indol-3-yl)-4-oxo-3,4-dihydroquinazoline-7-carboxyl)glycine]	65 nM
Cc1cc2c3c(c1)C(c1ccccc1)=NC(n1c(C)nc4cc(C(=O)N[C@@H](CC(C)C)C(=O)O)ccc4c1=O)C(=O)N3CC2 (some centres unmarked) [Example 35E, N-(2-Methyl-3-(9-methyl-4-oxo-1-phenyl-3,4,6,7-tetrahydro[1,4]diazepino[6,7,1-hi]indol-3-yl)-4-oxo-3,4-dihydroquinazoline-7-carboxyl)leucine]	82 nM
Cc1cc2c3c(c1)C(c1ccccc1)=NC(n1c(C)nc4cc(C(=O)N[C@@H](CC(=O)O)C(=O)O)ccc4c1=O)C(=O)N3CC2 (some centres unmarked) [Example 35F, N-(2-Methyl-3-(9-methyl-4-oxo-1-phenyl-3,4,6,7-tetrahydro[1,4]diazepino[6,7,1-hi]indol-3-yl)-4-oxo-3,4-dihydroquinazoline-7-carboxyl)aspartic acid]	547 nM
Cc1cc2c3c(c1)C(c1ccccc1)=NC(n1c(C)nc4cc(C(=O)N5CCC[C@H]5C(=O)O)ccc4c1=O)C(=O)N3CC2 (some centres unmarked) [Example 35G, N-(2-Methyl-3-(9-methyl-4-oxo-1-phenyl-3,4,6,7-tetrahydro[1,4]diazepino[6,7,1-hi]indol-3-yl)-4-oxo-3,4-dihydroquinazoline-7-carboxyl)proline]	291 nM
Cc1cc2c3c(c1)C(c1ccccc1)=NC(n1c(C)nc4cc(C(=O)N[C@@H](CCC(=O)O)C(=O)O)ccc4c1=O)C(=O)N3CC2 (some centres unmarked) [Example 35H, N-(2-Methyl-3-(9-methyl-4-oxo-1-phenyl-3,4,6,7-tetrahydro[1,4]diazepino[6,7,1-hi]indol-3-yl)-4-oxo-3,4-dihydroquinazoline-7-carboxyl)glutamic acid]	219 nM
Cc1cc2c3c(c1)C(c1ccccc1)=NC(n1c(C)nc4cc(C(=O)N[C@@H](CCCCN)C(=O)O)ccc4c1=O)C(=O)N3CC2 (some centres unmarked) [Example 35I]	120 nM
CCOC(=O)[C@H](Cc1ccccc1)NC(=O)c1ccc2c(=O)n(C3N=C(c4ccccc4)c4cc(C)cc5c4N(CC5)C3=O)c(C)nc2c1 (some centres unmarked) [Example 36, Ethyl 2-{[2-methyl-3-(9-methyl-4-oxo-1-phenyl-3,4,6,7-tetrahydro[1,4]diazepino[6,7,1-hi]indol-3-yl)-4-oxo-3,4-dihydroquinazolin0e-7-carbonyl]amino}-3-phenyl-(L)-propionate]	312 nM
COc1ccc(C2CNC(=O)C2)cc1OC1CCCC1 (centres unmarked) [rolipram, reference compound]	792 nM
